The record followed here is ChEMBL document CHEMBL1128198, “New drug developments for opportunistic infections in immunosuppressed patients: Pneumocystis carinii” (J Med Chem, 1995).

Data set [1] deals with T1, Dihydrofolate reductase (Pneumocystis carinii, UniProt P16184).
T1 sequence (P16184 whole entry): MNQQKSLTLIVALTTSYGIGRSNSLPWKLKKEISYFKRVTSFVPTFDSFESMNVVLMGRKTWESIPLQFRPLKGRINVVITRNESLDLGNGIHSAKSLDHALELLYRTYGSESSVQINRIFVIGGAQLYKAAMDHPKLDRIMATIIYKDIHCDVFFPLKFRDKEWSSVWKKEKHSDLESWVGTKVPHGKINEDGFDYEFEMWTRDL
Description: Inhibitory activity was determined against dihydrofolate reductase in Pneumocystis carinii.

Data set [2] relates to Pneumocystis carinii. The data set can be described thus: Toxicity in Pneumocystis carinii Strong activity. It counts as organism-based. The conditions noted are these: in vivo.
Data set [3] deals with Pneumocystis carinii. The data set can be described thus: Pneumocystis carinii cysts per gram of lung tissue was determined in Pneumocystis carinii expressed as perscent of saline treated- control. The arrangement: concentration or dose not given beside the values. It counts as functional.
Data set [4] relates to Pneumocystis carinii. Briefly: Minimal effective concentration inhibiting growth of Pneumocystis carinii was reported. To be noted: read-out: MEC. It counts as functional.
The test system of data set [5] is Rattus norvegicus. Briefly: Evaluated for effectiveness at 10 mg/kg reported as relative to pentamidine in rat. It counts as functional.
The species entered for data set [6] is Rattus norvegicus. Briefly: Toxicity was reported in rat. The conditions noted are these: in vivo. In kind it is organism-based.
The target of data set [7] is T1, Dihydrofolate reductase. This is another data set of the same source.
Description: Binding affinity was reported with purified recombinant Pneumocystis carinii Dihydrofolate reductase
Data set [8] has as its target T1, Dihydrofolate reductase. This is another data set of the same source.
Description: Inhibitory activity against dihydrofolate reductase in Pneumocystis carinii at 37 centigrade.
Data set [9] can be described thus: Ratio for IC50 of mammalian DHFR to IC50 of Pneumocystis carinii DHFR.
The species named for data set [10] is Rattus norvegicus. Briefly: Toxicity was reported in rat; Toxic. It counts as organism-based. To be noted: in vivo.
The species entered for data set [11] is Rattus norvegicus. Briefly: Toxicity was reported in rat; Toxic,. To be noted: in vivo. In kind it is organism-based.
Data set [12] concerns the target T2, Dihydrofolate reductase (Rattus norvegicus, UniProt Q920D2).
T2 sequence (Q920D2 whole entry): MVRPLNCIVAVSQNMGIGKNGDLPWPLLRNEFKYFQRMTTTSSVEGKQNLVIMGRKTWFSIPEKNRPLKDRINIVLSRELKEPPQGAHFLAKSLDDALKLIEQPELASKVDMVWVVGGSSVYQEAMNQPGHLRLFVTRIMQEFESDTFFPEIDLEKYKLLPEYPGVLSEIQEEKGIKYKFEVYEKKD
Briefly: Inhibitory activity against dihydrofolate reductase in rat.

Data set [13] is described as follows: Inhibitory activity of Pneumocystis carinii growth culture.
Data set [14] concerns the target T2, Dihydrofolate reductase. Briefly: Inhibitory activity against dihydrofolate reductase in rat liver.
Data set [15] deals with T1, Dihydrofolate reductase. This is another data set of the same source.
Data set [16] is filed under the species Rattus norvegicus. The data set can be described thus: toxicity was reported in rat. In kind it is organism-based. The conditions noted are these: in vivo.

Where only a bound is given, the exact number is not on record here.

`Nc1nc(N)c2c(ncc3c2ccn3Cc2ccc(Cl)cc2Cl)n1` showed an IC50 against Dihydrofolate reductase [1] of 6 nM.

In the case of `N=C(N)c1ccc2[nH]c(CCCCc3nc4cc(C(=N)N)ccc4[nH]3)nc2c1`, the Toxicity result in the data set on Pneumocystis carinii [2] is reported as “Strong activity”. The “Lung cyst count, % of saline control” value in the data set with Pneumocystis carinii [3] stood at 0.3%.

On to `COc1cc(NCCCCC(C)N)c2nccc(C)c2c1` (stereo not drawn), for which the minimal effective concentration with Pneumocystis carinii [4] worked out at 0.2 µM.

`CCc1nc(N)nc(N)c1-c1ccc(Cl)c([N+]#N)c1` came in with an IC50 against Dihydrofolate reductase [1] of 190 nM.

Consider `COc1cc(C(=N)N)ccc1OCOc1ccc(C(=N)N)cc1OC`, for which the Effectiveness with Rattus norvegicus [5] was 1.8. Besides, the Toxicity in the data set listed under Rattus norvegicus [6] is reported as 0.

Take `c1cc2[nH]c(CCCCc3nc4cc(C5=NCCN5)ccc4[nH]3)nc2cc1C1=NCCN1`: in the data set with Pneumocystis carinii [2], the Toxicity entry is given as “Strong activity”. Also, in the data set with Pneumocystis carinii [3], the “Lung cyst count, % of saline control” value is recorded as 0.1%.

`CCOc1cc(Cc2cnc(N)nc2N)cc(OCC)c1-n1cccc1` [EPIROPRIM]: the affinity on Dihydrofolate reductase [7], expressed as Ki, was 3.4 nM. Also, half-maximal inhibition against Dihydrofolate reductase [8] (IC50) was put at 3000 nM. Also, the Selectivity in data set [9] was 44.

For `CN(Cc1cnc2nc(N)nc(N)c2n1)c1ccc(C(=O)NC(CCC(=O)NC(CCC(=O)NC(CCC(=O)NC(CCC(=O)O)C(=O)O)C(=O)O)C(=O)O)C(=O)O)cc1` (stereo not drawn), on Dihydrofolate reductase [1], the IC50 was determined as 35 nM.

The compound `N=C(N)c1ccc(OCCCOc2ccc(C(=N)N)cc2)cc1` [PROPAMIDINE] displayed an Effectiveness in the data set on Rattus norvegicus [5] of 1.2. The Toxicity result in the data set listed under Rattus norvegicus [10] is given as “Toxic”.

Take `N=C(N)c1ccc2[nH]c(CCCc3nc4cc(C(=N)N)ccc4[nH]3)nc2c1`: the “Lung cyst count, % of saline control” value in the data set with Pneumocystis carinii [3] worked out at 32%.

With `c1cc(C2=NCCN2)ccc1OCOc1ccc(C2=NCCN2)cc1`, in the data set with Rattus norvegicus [5], the Effectiveness came out at 2.4. In addition, the Toxicity in the data set filed under Rattus norvegicus [6] was found to be 0.

With `N=C(N)c1ccc(OCCCCCOc2ccc(C(=N)N)cc2)cc1` [PENTAMIDINE], the Effectiveness with Rattus norvegicus [5] is 1. Also, the Toxicity result in the data set listed under Rattus norvegicus [11] was “Toxic”.

For `CCN=NNc1cc(-c2c(N)nc(N)nc2CC)ccc1Cl`, the IC50 at Dihydrofolate reductase [1] worked out at 2800 nM; against Dihydrofolate reductase [12], 18900 nM; in data set [13] it was 5500 nM.

Compound `N=C(N)c1cccc(OCCCCOc2cccc(C(=N)N)c2)c1` yielded an Effectiveness with Rattus norvegicus [5] of 0.6. This compound also showed a Toxicity in the data set filed under Rattus norvegicus [6] of 0.

On to `COc1ccc(OC)c(CCc2sc3nc(N)nc(N)c3c2C)c1`, for which the IC50 at Dihydrofolate reductase [1] came out at 1200 nM.

Compound `Nc1cc(N)c2nc(CSc3ccccc3)cnc2c1` returned a half-inhibitory concentration (IC50) on Dihydrofolate reductase [1] of 9500 nM.

With `CC1(C)N=C(N)N=C(N)N1c1ccc(Cl)cc1` [CYCLOGUANIL], the Ki on Dihydrofolate reductase [7] is 23.3 nM. The IC50 against Dihydrofolate reductase [8] was found to be 450 nM; at Dihydrofolate reductase [14] it was 110 nM.

On to `COc1cc(NC(C)CCCN)c2nccc(C)c2c1` (stereo not drawn), for which the minimal effective concentration in the data set with Pneumocystis carinii [4] was determined as 0.02 µM.

At Dihydrofolate reductase [1], `COc1cc(Cn2ccc3c4c(N)nc(N)nc4nc(O)c32)cc(OC)c1OC` had an IC50 of 3100 nM.

In turn, `Cc1cc(NS(=O)(=O)c2ccc(N)cc2)no1` [SULFAMETHOXAZOLE] displayed an IC50 on Dihydrofolate reductase [15] of 100 nM.

On Dihydrofolate reductase [1], `Nc1ccc(S(=O)(=O)c2ccc(N)cc2)cc1` [DAPSONE] displayed a half-maximal inhibitory concentration (IC50) of 1500 nM.

`COc1cc(C2=NCCN2)ccc1OCCCOc1ccc(C2=NCCN2)cc1`: the Effectiveness in the data set with Rattus norvegicus [5] is on record as 1.3. The compound further showed a Toxicity in the data set filed under Rattus norvegicus [6] of 0.

In the case of `COc1cc(NC(C)CCCN)c2ncccc2c1` (stereo not drawn) [PRIMAQUINE], the minimal effective concentration in the data set on Pneumocystis carinii [4] turned out to be 0.02 µM.

`COc1ccc(C2=NCCN2)cc1OCCCCOc1cccc(C2=NCCN2)c1` yielded an Effectiveness with Rattus norvegicus [5] of 1.7. Also, in the data set filed under Rattus norvegicus [11], the Toxicity entry is listed as “Toxic”.

On Dihydrofolate reductase [1], `CN(Cc1cnc2cc(N)cc(N)c2n1)c1ccc(C(=O)NC(CCC(=O)O)C(=O)O)c2ccccc12` (stereo not drawn) came in with an IC50 of 190 nM.

The compound `N=C(N)c1ccc(OCCCCOc2ccc(C(=N)N)cc2)cc1` displayed an Effectiveness in the data set with Rattus norvegicus [5] of 2.2. This compound came in with a Toxicity in the data set filed under Rattus norvegicus [16] of 0.

Compound `c1cc(OCCOc2cccc(C3=NCCN3)c2)cc(C2=NCCN2)c1` gave an Effectiveness in the data set with Rattus norvegicus [5] of 0.6. Further, the Toxicity entry in the data set filed under Rattus norvegicus [6] is reported as “Toxic”.

`Nc1nc(N)c2cc(Sc3cccc(C(F)(F)F)c3)sc2n1` displayed an IC50 against Dihydrofolate reductase [1] of 120000 nM.

For `COc1cc(NC(C)CCCN)c2nccc(C)c2c1Oc1cccc(C(F)(F)F)c1` (stereo not drawn), the minimal effective concentration in the data set with Pneumocystis carinii [4] is 0.2 µM.

Take `CCc1nc(N)nc(N)c1-c1ccc(Cl)c(NCN(C)C)c1`: half-maximal inhibition against Dihydrofolate reductase [1] (IC50) was put at 10600 nM.

Take `CCN(CC)CCCCCCNc1cc(OC)cc2c(C)ccnc12` [SITAMAQUINE]: the minimal effective concentration in the data set on Pneumocystis carinii [4] came to 2.3 µM.

Consider `COCCOc1c(OC)cc(Cc2cnc(N)nc2N)cc1OC` [TETROXOPRIM], for which the IC50 at Dihydrofolate reductase [8] was above 63000 nM.

With `c1cc2[nH]c(CCCc3nc4cc(C5=NCCN5)ccc4[nH]3)nc2cc1C1=NCCN1`, in the data set with Pneumocystis carinii [3], the “Lung cyst count, % of saline control” value is 4%.

Take `N=C(N)c1ccc2[nH]c(/C=C/c3nc4cc(C(=N)N)ccc4[nH]3)nc2c1`: the “Lung cyst count, % of saline control” value in the data set with Pneumocystis carinii [3] was determined as 3%.

As to `N=C(N)c1cccc(OCOc2cccc(C(=N)N)c2)c1`, in the data set on Rattus norvegicus [5], the Effectiveness was 0.7. The compound further came in with a Toxicity in the data set filed under Rattus norvegicus [6] of 0.

Compound `N=C(N)c1ccc(OCOc2ccc(C(=N)N)cc2N)c(N)c1` yielded an Effectiveness in the data set with Rattus norvegicus [5] of 1.1. This compound returned a Toxicity in the data set listed under Rattus norvegicus [6] of 0.

Regarding `N=C(N)c1cc(N)cc(OCCCCOc2cc(C(=N)N)ccc2N)c1`, in the data set with Rattus norvegicus [5], the Effectiveness is 1.1. In the data set filed under Rattus norvegicus [6], this compound displayed a Toxicity of 0.

In the case of `COc1cc(NC(C)CCCN)c2nc(C)ccc2c1` (stereo not drawn), the minimal effective concentration in the data set with Pneumocystis carinii [4] was 0.03 µM.

Turning to `COc1cc(OCCCCOc2cc(C(=N)N)ccc2OC)cc(C(=N)N)c1`, in the data set on Rattus norvegicus [5], the Effectiveness worked out at 1.2. Also, the Toxicity in the data set filed under Rattus norvegicus [6] is reported as 0.

As for `COc1cc(C)c2c(Oc3cccc(C(F)(F)F)c3)c(OC)cc(NC(C)CCCN)c2n1` (stereo not drawn) [TAFENOQUINE], the minimal effective concentration with Pneumocystis carinii [4] is 0.2 µM.

Turning to `CCCCCCOc1c(OC)cc(NC(C)CCCN)c2nccc(C)c12` (stereo not drawn) [WR-242511], in the data set with Pneumocystis carinii [4], the minimal effective concentration is 0.2 µM.

As for `N=C(N)c1ccc2[nH]c(CCc3nc4cc(C(=N)N)ccc4[nH]3)nc2c1`, in the data set on Pneumocystis carinii [3], the “Lung cyst count, % of saline control” value worked out at 1%.

The term IC50 denotes the concentration at which inhibition is half-maximal. In general, Ki refers to the equilibrium dissociation constant of an inhibitor or competing ligand from its target.
